Structures can show the parent of a compound that is named as a salt.
Assays:
[1] = In vitro dissolution test in 0.01 N HCl simulated gastric buffer pH 2.0 (MDC and AUC90); type: physicochemical; conditions: for AUC90 / MDC: 200 μgA/mL if all dissolved, pH 2.0, 37° C., 100 rpm; for AUC Enhancement Relative to Control 1: AUC90, pH 2.0 simulated gastric buffer; for AUC Enhancement Relative to Control 1 / MDC Enhancement Relative to Control 1: 37° C.; for MDC Enhancement Relative to Control 1: pH 2.0 simulated gastric buffer
Description: An in vitro dissolution test may be performed by adding the test form of ziprasidone to a dissolution test media consisting of a simulated gastric buffer (GB) solution of 0.01 N HCl at pH 2.0.
In such a test, two end-points are assessed: 1) the maximum dissolved drug concentration (MDC) of ziprasidone in the test media, and 2) the area under the concentration versus time curve of dissolved ziprasidone in the in vitro dissolution test. More specifically, in the in vitro use environment, the concentration of dissolved ziprasidone over any 90-minute period from about 0 to about 270 minutes following introduction to the use environment is measured.
An in vitro test to evaluate enhanced ziprasidone dissolution rate in aqueous solution can be conducted by adding with agitation a sufficient quantity of test ziprasidone form to the test medium, such that if all the ziprasidone dissolved, the theoretical concentration of ziprasidone would exceed the equilibrium concentration provided by the control ziprasidone form by a factor of at least 2, and preferably by a factor of at least 10. Performing the test at this concentration will ensure that the MDC of ziprasidone can be determined.
Then, the concentration of dissolved ziprasidone is measured as a function of time by sampling the test medium and plotting ziprasidone concentration in the test medium versus time so that the dissolution rate can be ascertained. The MDC is taken to be the maximum value of dissolved ziprasidone measured over the duration of the test.
During such a test, the concentration of “dissolved drug” should be measured using standard analytical techniques, including high-performance liquid chromatography (HPLC), ultraviolet (UV) absorption, or other standard methods known in the art. When using solution techniques, such as HPLC, the test solution should be either filtered or centrifuged, to avoid large drug particulates that would give an erroneous determination.
“Dissolved drug” is typically taken as that material that either passes a 0.45 μm syringe filter or, alternatively, the material that remains in the supernatant following centrifugation. Filtration can be conducted using a 13 mm, 0.45 μm polyvinylidine difluoride syringe filter sold by Scientific Resources under the trademark TITAN®. Centrifugation is typically carried out in a polypropylene microcentrifuge tube by centrifuging at 13,000 G for 60 seconds. Other similar filtration or centrifugation methods can be employed and useful results obtained. For example, using other types of microfilters may yield values somewhat higher or lower (±10-40%) than that obtained with the filter specified above but will still allow identification of preferred dissolution rate-improved forms.
A specific example of a dissolution test for ascertaining solubility and dissolution rate of a test ziprasidone form is as follows: First, a sufficient amount of the test form is placed into a dissolution flask such that the concentration of ziprasidone would have been 200 μgA/mL if all the ziprasidone dissolved. A simulated GB solution at pH 2.0 is then added and the mixture stirred at a stirred speed of 100 rpm. The test is performed at 37° C. Using UV probes, the concentration of dissolved ziprasidone is then measured over time for at least 90 minutes. The formulation is considered to be a solubility-improved form or dissolution rate-improved form of ziprasidone if it provides at least one of (1) a MDC that is greater than that of the control, (2) an AUC90 that is greater than that of the control, or (3) both (1) and (2). The control formulation, as discussed above, is crystalline ziprasidone HCl monohydrate as is used in the GEODON/ZELDOX™ commercial capsules.
The following test was used to evaluate various ziprasidone formulations. […]

[2] = depending on the dose, healthy volunteers; cited from earlier work

AUC90 ([1]; hydrochloride monohydrate)	MDC ([1]; hydrochloride monohydrate)	AUC90 [1]	MDC [1]	AUC Enhancement Relative to Control 1 [1]	MDC Enhancement Relative to Control 1 [1]	Compound	enhanced absorption when given with food [2]
1.6 mg·min/mL	25 μgA/mL					O=C1Cc2cc(CCN3CCN(c4nsc5ccccc45)CC3)c(Cl)cc2N1 [Control 1, ziprasidone hydrochloride monohydrate, reference compound]	
		9.0 mg·min/mL	140 μgA/mL	5.5 fold	5.5 fold	O=C1Cc2cc(CCN3CCN(c4nsc5ccccc45)CC3)c(Cl)cc2N1 [Example 6, ziprasidone mesylate]	
		7.0 mg·min/mL	85 μgA/mL	4.3 fold	3.3 fold	O=C1Cc2cc(CCN3CCN(c4nsc5ccccc45)CC3)c(Cl)cc2N1 [Example 7, ziprasidone free base]	
		6.1 mg·min/mL	76 μgA/mL	3.7 fold	3.0 fold	NC(CC(=O)O)C(=O)O.O=C1Cc2cc(CCN3CCN(c4nsc5ccccc45)CC3)c(Cl)cc2N1 [Example 10, ziprasidone aspartate]	
						O=C1Cc2cc(CCN3CCN(c4nsc5ccccc45)CC3)c(Cl)cc2N1 [Ziprasidone, 5-[2-[4-(1,2-benzisothiazol-3-yl)-1-piperazinyl]ethyl]-6-chloro-1,3-dihydro-2H-indol-2-one]	approximately 100%
		2.4 mg·min/mL	33 μgA/mL	1.5 fold	1.3 fold	ziprasidone citrate [Example 11]	
		4.9 mg·min/mL	59 μgA/mL	3.0 fold	2.3 fold	ziprasidone succinate [Example 12]	
		6.1 mg·min/mL	91 μgA/mL	3.7 fold	3.6 fold	ziprasidone tartrate [Example 9]	
		3.8 mg·min/mL	54 μgA/mL	2.3 fold	2.1 fold	ziprasidone tosylate [Example 8]	

— US20110002989A1, “METHODS, DOSAGE FORMS AND KITS FOR ADMINISTERING ZIPRASIDONE WITHOUT FOOD” (Pfizer Inc., priority 2008, published 2011)
